Measurements from patent US12016943B2, “Antiperspirant or deodorant composition” (Firmenich SA, priority 2016, dated 2024).

Assays:
[1] = Assessment of coloration of deodorant or antiperspirant formulations containing perfuming ingredients with or without Haloscent D; type: physicochemical; parameters: key to Coloration of antiperspirant stick: CO: color; COYE: yelow color; VSCOYE: very slight yellow color; SCOYE: slight yellow color; VCOYE: very yellow color; NC: no color; DECO: decoloration; CL: cloud; VCL: very cloud; WH: white; VCOBR: very brown color; COPI: ping color; settings: perfuming ingredient 0.5 wt %; for Coloration of antiperspirant stick: after 7 days
Procedure: (§1) Preparation of an Antiperspirant Spray Formulation: Using a high speed stirrer, Silica (Table 1) and Quaternium-18-Hectorite (Table 1) were added to the Isopropyl miristate (Table 1) and Cyclomethicone mixture (Table 1). Once completely swollen, Aluminium Chlorohydrate (Table 1) was added portion wise under stirring until the mixture was homogeneous and without lumps. The aerosol cans were filled with 25% Suspension of the suspension and 75% of Propane/Butane (2.5 bar).
(§2) Preparation of Deodorant Spray Formulation: All the ingredients according to the sequence of the Table 2 were mixed and dissolved. Then the aerosol cans were filled, crimp and add the propellant (Aerosol filling: 40% active solution 60% Propane/Butane 2.5 bar).
(§3) Part A was prepared by sprinkling little by little the Hydroxyethylcellulose (Table 3) in the water (Table 3) whilst rapidly stirring with the turbine. Stirring was continued until the Hydroxyethylcellulose had entirely swollen and giving a limpid gel. Then, Part B (Table 3) was poured little by little in Part A whilst continuing stirring until the whole was homogeneous. Part C was added (Table 3).
(§4) Preparation of a Deodorant Stick Formulation: All the components of Part A were weighted (Table 4) and heated up to 70-75° C. Ceteareth-25 (Table 4) was added once the other Part A ingredients were mixed and heated. Once the Ceteareth-25 was dissolved, the Stearic Acid was added. Part B was prepared by dissolving the Triclosan (Table 4) in 1,2 Propylene Glycol (Table 4). Water which has evaporated was added. Slowly under mixing, Part B was poured into part A. To stock, a plastic bag into the bucket was put in to be sealed after cooling. Moulds was filled at about 70° C.
(§5) Preparation of an Antiperspirant Stick Formulation: All the components of Part A were weighted (Table 5), heated up to 70-75° C. and mixed well. Ingredient of Part B was dispersed in Part A. The mixture was mixed and putted into a tick at 65° C.
(§6) Assessment of Coloration in the Perfuming Ingredients: To set of deodorant or antiperspirant formulations of point a) to e) has been prepared. A perfuming ingredient (0.5 wt %—Table 6, 7 and 8) was added to the first set a and a perfuming ingredient (0.5 wt %—Table 6, 7 and 8) and Haloscent® D (0.5 wt %) were added to the second set. All these formulations were placed at 3° C. and 45° C. for several weeks. All formulations were evaluated in comparison with unperfumed deodorant or antiperspirant formulation. The coloration of each formulation was assessed by a minimum of 2 panelists.

[2] = as above; type: physicochemical; parameters: key: CO: color; COYE: yellow color; SCOYE: slight yellow color; VCOYE: very yellow color; NC: no color; DECO: discoloration; CL: cloud; VCL: very cloud; WH: white; VCOBR: very brown color; COPI: ping color; settings: perfuming ingredient 0.5 wt %, after 15 days; for Coloration of deodorant spray: DEO SPRAY + Haloscent D 0.5 wt %; for Coloration of deodorant stick: DEO STICK + Haloscent D 0.5 wt %
Procedure: as §1, §2, §3, §4, §5, §6

[3] = as above; type: physicochemical; parameters: key: CO: color; COYE: yelow color; VSCOYE: very slight yellow color; SCOYE: slight yellow color; VCOYE: very yellow color; NC: no color; DECO: decoloration; CL: cloud; VCL: very cloud; WH: white; VCOBR: very brown color; COPI: ping color; settings: perfuming ingredient 0.5 wt %, after 15 days
Procedure: as §1, §2, §3, §4, §5, §6

[4] = Sensory evaluation of spray deodorant on cotton t-shirts: perceived fragrance intensity; settings: deodorant spray on t-shirt, immediately after application
Description: Test formulations comprising either fragrance formulation 1 containing the β-thio carbonyl derivative profragrance of formula (I), commercially available as HALOSCENT®-D, at the amounts indicated, or fragrance formulation 1 containing the 0-thio carbonyl derivative profragrance of formula (I), commercially available as HALOSCENT®-I were formulated as deodorant sprays.
One gram of each of the test formulation was applied to separate 2-3 year old cotton t-shirts. In parallel, control formulations, comprising fragrance formulation alone (i.e., lacking the β-thio carbonyl derivative profragrance of formula (I)) were similarly applied to separate t-shirts.
A minimum of 18 skilled panelists were asked to evaluate the intensity of the fragrance of the […], in a blind, balanced, randomized study, with a 20 second break between samples.
The panelists were asked to rank the intensity of the fragrance from 0 (not perceptible), to 10 (very strong odour). The results of the evaluation were analyzed using Analysis of Variance with Duncan's post-hoc analysis (α=0.05). The analyzed results are shown in FIG. 1, where the average for each sample at the times indicated are shown. The error bars indicate the 95% confidence level. ***=a significant difference at 99.9%; **=a significant difference at 99%; *=significant difference at 95%; NS=no significant difference.

[5] = AP Stick + Haloscent D 0.5 wt %, 3° C.
[6] = AP Stick + Haloscent D 0.5 wt %, 45° C.
[7] = AP SPRAY + Haloscent D 0.5 wt %, 3° C.
[8] = AP SPRAY + Haloscent D 0.5 wt %, 45° C.
[9] = DEO ROLL-ON + Haloscent D 0.5 wt %, 3° C.
[10] = DEO ROLL-ON + Haloscent D 0.5 wt %, 45° C.
[11] = DEO STICK + Haloscent D 0.5 wt %, 3° C.

Row | Coloration of antiperspirant stick [1, 5] | Coloration of antiperspirant stick [1, 6] | Coloration of antiperspirant stick ([1]; AP Stick, 3° C.) | Coloration of antiperspirant stick ([1]; AP Stick, 45° C.) | Coloration of deodorant spray ([2]; 45° C.) | Coloration of antiperspirant spray [3, 7] | Coloration of antiperspirant spray [3, 8] | Coloration of deodorant roll-on [3, 9] | Coloration of deodorant roll-on [3, 10] | Coloration of deodorant roll-on ([3]; DEO ROLL-ON, 3° C.) | Coloration of deodorant roll-on ([3]; DEO ROLL-ON, 45° C.) | Coloration of deodorant stick [3, 11] | Coloration of deodorant stick ([3]; DEO STICK, 3° C.) | Coloration of deodorant stick ([3]; DEO STICK, 45° C.) | Compound | other results
1 | DECO | SCOYE | DECO | VSCOYE | DECO | SCOYE | SCOYE | WH | VCL | VCL | VCL | NC | NC | NC | 1-OXA-12-CYCLOHEXADECEN-2-ONE (A) + 1-OXA-13-CYCLOHEXADECEN-2-ONE [HABANOLIDE] | Coloration of deodorant spray ([2]; 3° C.): DECO; Coloration of antiperspirant spray ([3]; AP SPRAY, 3° C.): NC; Coloration of antiperspirant spray ([3]; AP SPRAY, 45° C.): NC; Coloration of deodorant spray ([3]; DEO SPRAY, 3° C.): NC; Coloration of deodorant spray ([3]; DEO SPRAY, 45° C.): NC; Coloration of deodorant stick ([3]; DEO STICK + Haloscent D 0.5 wt %, 45° C.): NC
2 | VSCO | NC | DECO | NC | – | – | – | NC | NC | NC | NC | – | NC | NC | CC(C)=CCC/C(C)=C/CO [(E)-3,7-DIMETHYL-2,6-OCTADIEN-1-OL] | Coloration of deodorant stick ([2]; 3° C.): COYE; Coloration of deodorant stick ([2]; 45° C.): COYE
3 | – | – | – | – | – | – | – | – | – | – | – | – | – | – | CCCCCCCCCCCCSC(CC(C)=O)C1C(C)=CCCC1(C)C (centres unmarked) [HALOSCENT®-I, 4-(dodecylthio)-4-(2,6,6-trimethylcyclohex-2-en-1-yl)butan-2-one] | Perceived intensity of fragrance versus control formulation (FIG. 1) ([4]; fragrance formulation 1 containing 3% HALOSCENT-I): significant increases
4 | DECO PI | DECO PI | – | – | COYE | NC | SCOYE | NC | NC | – | – | NC | – | – | CCCCCCCCCCCCSC(C)CC(=O)C1C(C)C=CCC1(C)C (centres unmarked) [Haloscent ® D, 3-(dodecylthio)-1-(2,6,6-trimethylcyclohex-3-en-1-yl)butan-1-one] | Coloration of deodorant stick ([1]; DEO STICK + Haloscent D 0.5 wt %, 45° C., after 15 days): COYE CL; Coloration of deodorant spray ([3]; DEO SPRAY + Haloscent D 0.5 wt %, 3° C.): SCOYE; Perceived intensity of fragrance versus control formulation (FIG. 1) ([4]; fragrance formulation 1 containing 1.2% HALOSCENT-D): significant increases
